Measured values taken from patent US20040039040A1, “Urea derivative and adhesive-molecule inhibitor containing the same as active ingredient” (priority 2000, published 2004).

How the values were obtained:
[1] = biological target: VLA-4-IgG chimera protein (Homo sapiens, UniProt P05556+P13612); assay: Inhibitory effect against binding between CS-1 peptide and VLA-4-IgG chimera protein; details: binding of VLA-4-IgG chimera protein to immobilized CS-1 peptide-rabbit IgG conjugate; compound preincubated 20 min; 30° C. 3 hours; absorbance at 490 nm
Sequence of VLA-4-IgG chimera protein (P13612 with tags, fused parts or gaps limits assumed): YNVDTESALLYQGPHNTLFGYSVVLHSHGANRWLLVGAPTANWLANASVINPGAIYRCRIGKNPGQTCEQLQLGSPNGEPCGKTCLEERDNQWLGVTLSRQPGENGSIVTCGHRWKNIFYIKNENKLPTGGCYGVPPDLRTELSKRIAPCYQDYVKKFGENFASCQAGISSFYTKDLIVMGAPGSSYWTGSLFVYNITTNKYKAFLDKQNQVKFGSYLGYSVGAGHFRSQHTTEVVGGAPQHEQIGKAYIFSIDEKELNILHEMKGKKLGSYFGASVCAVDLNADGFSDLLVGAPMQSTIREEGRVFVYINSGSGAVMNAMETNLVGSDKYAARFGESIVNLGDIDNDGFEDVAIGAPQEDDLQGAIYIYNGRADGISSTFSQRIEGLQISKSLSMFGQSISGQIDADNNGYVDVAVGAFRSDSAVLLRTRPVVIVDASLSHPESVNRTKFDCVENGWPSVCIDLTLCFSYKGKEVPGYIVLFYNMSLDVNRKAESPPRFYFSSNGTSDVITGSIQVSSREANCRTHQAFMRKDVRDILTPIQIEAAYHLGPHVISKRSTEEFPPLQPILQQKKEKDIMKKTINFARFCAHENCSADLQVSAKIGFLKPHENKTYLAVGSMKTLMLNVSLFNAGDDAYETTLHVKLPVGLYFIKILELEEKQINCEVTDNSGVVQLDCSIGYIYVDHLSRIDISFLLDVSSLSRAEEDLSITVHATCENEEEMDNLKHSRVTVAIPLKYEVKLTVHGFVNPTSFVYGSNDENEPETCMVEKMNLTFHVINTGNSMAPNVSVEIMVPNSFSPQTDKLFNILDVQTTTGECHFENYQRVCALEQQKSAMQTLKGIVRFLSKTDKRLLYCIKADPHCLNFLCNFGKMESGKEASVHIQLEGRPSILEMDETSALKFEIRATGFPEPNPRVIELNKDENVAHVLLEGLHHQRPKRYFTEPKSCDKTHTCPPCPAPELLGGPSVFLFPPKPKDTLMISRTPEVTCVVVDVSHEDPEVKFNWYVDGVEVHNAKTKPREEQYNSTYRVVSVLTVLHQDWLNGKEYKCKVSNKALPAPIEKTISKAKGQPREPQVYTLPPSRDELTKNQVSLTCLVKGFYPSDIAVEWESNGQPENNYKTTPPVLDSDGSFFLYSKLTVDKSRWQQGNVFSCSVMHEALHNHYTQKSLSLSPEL
Sequence of VLA-4-IgG chimera protein (P05556 with tags, fused parts or gaps limits assumed): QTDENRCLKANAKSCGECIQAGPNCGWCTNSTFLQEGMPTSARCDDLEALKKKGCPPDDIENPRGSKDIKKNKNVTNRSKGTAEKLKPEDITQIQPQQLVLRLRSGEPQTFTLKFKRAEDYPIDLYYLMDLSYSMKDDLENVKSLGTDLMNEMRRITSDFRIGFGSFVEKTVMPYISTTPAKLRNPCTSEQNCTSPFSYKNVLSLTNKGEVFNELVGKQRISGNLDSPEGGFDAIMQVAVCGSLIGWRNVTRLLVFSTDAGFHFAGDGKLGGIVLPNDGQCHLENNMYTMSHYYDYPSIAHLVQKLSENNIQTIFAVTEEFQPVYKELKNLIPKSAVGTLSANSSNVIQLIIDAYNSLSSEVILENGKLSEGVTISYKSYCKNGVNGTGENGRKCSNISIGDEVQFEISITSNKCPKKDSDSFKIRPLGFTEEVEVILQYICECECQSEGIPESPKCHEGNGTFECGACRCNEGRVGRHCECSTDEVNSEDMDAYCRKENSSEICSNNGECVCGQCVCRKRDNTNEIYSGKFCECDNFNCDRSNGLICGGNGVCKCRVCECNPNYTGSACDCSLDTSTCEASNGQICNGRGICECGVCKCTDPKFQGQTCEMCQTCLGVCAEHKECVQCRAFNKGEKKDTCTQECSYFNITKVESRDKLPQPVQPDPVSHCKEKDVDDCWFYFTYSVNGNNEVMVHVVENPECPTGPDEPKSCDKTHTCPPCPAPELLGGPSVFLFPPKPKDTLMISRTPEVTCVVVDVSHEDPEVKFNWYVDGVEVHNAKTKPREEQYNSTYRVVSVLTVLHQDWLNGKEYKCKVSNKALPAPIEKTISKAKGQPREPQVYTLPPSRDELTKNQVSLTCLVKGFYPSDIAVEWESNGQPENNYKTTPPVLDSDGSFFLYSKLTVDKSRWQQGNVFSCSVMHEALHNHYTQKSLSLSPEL
Experimental: The inhibitory activity of the compound according to the present invention against the adhesion of VLA-4 may be determined by using an adhesion-measuring system in which the adhesion between VLA-4-expressing cells such as Ramos cells or Jurkat cells and fibronectin or fibronectin fragment such as a peptide containing CS-1 sequence (Gly Pro Glu Ile Leu Asp Val Pro Ser Thr) (hereinafter referred to as “CS-1 peptide”), immobilized on an immunoplate is measured. Alternatively, a binding-measuring system in which the adhesion between VLA-4 protein and fibronectin or fibronectin fragment such as CS-1 peptide, immobilized on an immunoplate may be used. In the present invention, it is preferred to evaluate the inhibitory activity of a compound using a binding-measuring system in which adhesion between a chimera protein of VLA-4-immunoglobulin (VLA-4-IgG chimera protein) and CS-1 peptide (Japanese Patent Application No. H9-234544), but the method is not restricted thereto. The “VLA-4-IgG chimera protein” herein means the heterodimer complex of the chimera protein between α4 of VLA-4 and immunoglobulin (hereinafter referred to as “VLAα4-IgG chimera protein”) and a chimera protein between β1 of VLA-4 and immunoglobulin (hereinafter referred to as “VLAβ1-IgG chimera protein”). As the immunoglobulin, although heavy chain or light chain of IgG, IgM or the like may be used, IgG1 heavy chain is used in the present invention. When testing the inhibitory effect of a compound, it is preferred to mix VLA-4-IgG chimera protein and the test compound previously.
In accordance with the teaching of a report (Humphrise, M. J. et al. J.Bio.Chem., 262,6886-6892(1987)), a conjugate between a peptide (Gys Leu His Gly Pro Glu Glu Ile Leu Asp Val Pro Ser Thr) containing CS-1 sequence and rabbit IgG (Sigma) was prepared. This was diluted with phosphate buffer (hereinafter referred to as “PBS(−)” for short), and the obtained solution was placed in the wells of a 96-well immunoplate (NUNC) in an amount of 100 μl/well, followed by leaving to stand the immunoplate at 4° C. for 16 hours to immobilize the conjugate.
The wells were then washed twice with PBS(−), and 1% BSA solution in PBS, which BSA was heated at 80° C. for 10 minutes, was placed in each well in an amount of 300 μl/well. The immunoplate was left to stand at 4° C. for 3 hours, and then the solution in each well was removed by suction.
Each compound and VLA-4-IgG chimera protein (100 μl) were preliminarily reacted at room temperature for 20 minutes, and then the resulting mixture was allowed to react with the CS-1 peptide in each well at 30° C. for 3 hours. Thereafter, non-bound VLA-4-IgG chimera protein was removed by suction, and each well was washed twice with 0.1% BSA-containing TBS buffer (150 mM NaCl, 25 mM Tris-HCl, 1 mM MnCl2, PH7.4). To the bound VLA-4-IgG chimera protein, biotin-labelled anti-human IgG antibody (Vector) as a primary antibody was added, and then avidin-labelled horse radish peroxidase (Sigma) as a secondary antibody was added, thereby allowing the reactions. Then o-phenylenediamine as a substrate was added to color the reaction solution, and the absorbance at 490 nm was measured. From this absorbance, the binding inhibitory activity of each compound was determined.

O=C(N[C@@H](Cn1ccc(NC(=O)c2c(Cl)cccc2Cl)nc1=O)C(=O)O)NC1(C(=O)Nc2ccccc2)CCCCC1 [Compound 8, 3-(4-((2,6-dichlorophenyl)carbonylamino)-2-oxohydropyrimidinyl)-2-((((N-phenylcarbamoyl)cyclohexyl)amino)carbonylamino)propanoic Acid]
melting point: 193 to 195 °C

CS(=O)(=O)N1CC2(CCN(C(=O)N[C@@H](Cn3ccc(NC(=O)c4c(Cl)cccc4Cl)nc3=O)C(=O)O)CC2)c2ccccc21 [Compound 28, 3-(4-((2,6-dichlorophenyl)carbonylamino)-2-oxohydropyrimidinyl)-2-((1-(methylsulfonyl)spiro[indoline-3,4′-piperidin]-10-yl)carbonylamino)propanoic Acid]
IC50 [1]: 3.8 nM

O=C(Nc1ccn(C[C@H](NC(=O)N2CCC(n3c(=O)[nH]c4ccccc43)CC2)C(=O)O)c(=O)n1)c1c(Cl)cccc1Cl [Compound 32, 3-(4-((2,6-dichlorophenyl)carbonylamino)-2-oxohydropyrimidinyl)-2-((4-(2-oxo-3-azaindolinyl)piperidyl)carbonylamino)propanoic Acid]
IC50 [1]: 0.97 nM

O=C(Nc1ccn(C[C@H](NC(=O)N2CCC3(CC2)C(=O)NCN3c2ccccc2)C(=O)O)c(=O)n1)c1c(Cl)cccc1Cl [Compound 35]
IC50 [1]: 2.4 nM

CC(=O)NC1(c2ccccc2)CCN(C(=O)N[C@@H](Cn2ccc(NC(=O)c3c(Cl)cccc3Cl)nc2=O)C(=O)O)CC1 [Compound 37]
IC50 [1]: 3.5 nM

O=C(Nc1ccc(C[C@@H](C(=O)O)N2C(=O)NC3(CCCCC3)C2=O)cc1)c1c(Cl)cccc1Cl [Compound 44]
melting point: 250 °C

C[C@@H]1CCC[C@H](C)N1C(=O)N[C@@H](Cn1ccc(NC(=O)c2c(Cl)cccc2Cl)nc1=O)C(=O)O [Compound 50, 3-(4-((2,6-dichlorophenyl)carbonylamino)-2-oxohydropyrimidinyl)-2-((2,6-dimethylpiperidyl)carbonylamino)propanoic Acid]
IC50 [1]: 4.5 nM
